Results: article PMC5964349, “A Single-Domain Response Regulator Functions as an Integrating Hub To Coordinate General Stress Response and Development in Alphaproteobacteria” (mBio, 2018)

Assays:
Test in all cases: autophosphorylation, SDS-PAGE autoradiography
Assay type in all cases: biochemical
[1] = target: T1, CC2874 lacking its C-terminal receiver domain (ΔREC) (Caulobacter vibrioides, UniProt Q9A4G0); details: 500 µM ATP with [γ-32P]ATP; 5 mM MgCl2, pH 8.0, room temperature, 15 min; labelled compound
T1 construct: gene CC_2874; recombinant from E. coli BL21, Ni-NTA purified

CC2554 = target: T2, CC2554 (Caulobacter vibrioides, UniProt Q9A599); details: 500 µM ATP with [γ-32P]ATP; 5 mM MgCl2, pH 8.0, room temperature, 15 min; labelled compound
T2 construct: gene CC_2554; recombinant from E. coli BL21, Ni-NTA purified
T2 sequence (Q9A599 1-338): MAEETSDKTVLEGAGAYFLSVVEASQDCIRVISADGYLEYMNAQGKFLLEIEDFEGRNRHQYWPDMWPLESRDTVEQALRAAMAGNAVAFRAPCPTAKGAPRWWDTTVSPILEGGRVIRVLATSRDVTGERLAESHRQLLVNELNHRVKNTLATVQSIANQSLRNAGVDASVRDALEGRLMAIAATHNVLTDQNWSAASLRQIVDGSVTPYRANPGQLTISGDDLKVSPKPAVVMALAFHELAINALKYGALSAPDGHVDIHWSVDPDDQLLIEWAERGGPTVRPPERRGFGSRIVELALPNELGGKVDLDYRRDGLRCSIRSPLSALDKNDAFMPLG

CC2874 = target: T3, CC2874 (Caulobacter vibrioides, UniProt Q9A4G0); details: 500 µM ATP with [γ-32P]ATP; 5 mM MgCl2, pH 8.0, room temperature, 15 min; labelled compound
T3 construct: gene CC_2874; recombinant from E. coli BL21, MBP-tagged (partly cleaved), Ni-NTA purified
T3 sequence (Q9A4G0 1-794): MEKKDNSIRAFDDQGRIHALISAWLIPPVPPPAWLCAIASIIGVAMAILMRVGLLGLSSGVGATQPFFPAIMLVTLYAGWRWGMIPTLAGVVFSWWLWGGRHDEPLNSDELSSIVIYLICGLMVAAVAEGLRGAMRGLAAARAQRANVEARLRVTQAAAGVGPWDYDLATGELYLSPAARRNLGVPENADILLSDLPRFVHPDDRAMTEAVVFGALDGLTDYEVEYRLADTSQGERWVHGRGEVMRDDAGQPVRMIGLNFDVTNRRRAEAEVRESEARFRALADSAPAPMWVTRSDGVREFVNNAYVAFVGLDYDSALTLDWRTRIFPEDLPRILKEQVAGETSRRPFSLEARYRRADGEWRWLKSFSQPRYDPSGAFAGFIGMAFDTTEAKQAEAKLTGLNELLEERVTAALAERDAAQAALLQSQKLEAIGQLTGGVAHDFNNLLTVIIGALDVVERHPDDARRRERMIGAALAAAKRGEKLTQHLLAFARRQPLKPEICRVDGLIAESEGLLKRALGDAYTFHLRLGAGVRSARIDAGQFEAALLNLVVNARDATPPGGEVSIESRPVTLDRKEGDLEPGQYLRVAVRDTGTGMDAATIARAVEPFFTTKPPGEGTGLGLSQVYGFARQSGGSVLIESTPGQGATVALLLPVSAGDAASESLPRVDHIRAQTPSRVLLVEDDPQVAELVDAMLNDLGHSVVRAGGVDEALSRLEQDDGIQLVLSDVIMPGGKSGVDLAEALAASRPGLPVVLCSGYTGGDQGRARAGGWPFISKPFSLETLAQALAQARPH

CC1683 = target: T4, CC1683 (Caulobacter vibrioides, UniProt Q9A7N7); details: 500 µM ATP with [γ-32P]ATP; 5 mM MgCl2, pH 8.0, room temperature, 30 min; labelled compound
T4 construct: gene CC_1683; recombinant from E. coli BL21, Ni-NTA purified
T4 sequence (Q9A7N7 1-555): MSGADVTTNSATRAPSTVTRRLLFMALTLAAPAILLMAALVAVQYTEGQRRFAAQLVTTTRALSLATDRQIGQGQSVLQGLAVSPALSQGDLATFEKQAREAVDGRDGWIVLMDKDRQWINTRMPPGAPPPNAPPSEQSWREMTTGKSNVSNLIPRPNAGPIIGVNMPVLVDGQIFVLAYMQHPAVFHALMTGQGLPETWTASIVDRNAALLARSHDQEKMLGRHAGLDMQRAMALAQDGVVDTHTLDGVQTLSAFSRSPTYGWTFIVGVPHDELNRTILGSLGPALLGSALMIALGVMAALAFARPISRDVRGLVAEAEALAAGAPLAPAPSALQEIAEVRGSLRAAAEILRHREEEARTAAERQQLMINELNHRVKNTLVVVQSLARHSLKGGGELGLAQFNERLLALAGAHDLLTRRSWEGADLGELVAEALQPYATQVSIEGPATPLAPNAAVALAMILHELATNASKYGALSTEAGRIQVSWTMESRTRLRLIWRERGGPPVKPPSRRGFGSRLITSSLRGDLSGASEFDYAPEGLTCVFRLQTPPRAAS

CC3170 = target: T5, CC3170 (Caulobacter vibrioides, UniProt Q9A3N2); details: 500 µM ATP with [γ-32P]ATP; 5 mM MgCl2, pH 8.0, room temperature, 30 min; labelled compound
T5 construct: gene CC_3170; recombinant from E. coli BL21, Ni-NTA purified
T5 sequence (Q9A3N2 1-473): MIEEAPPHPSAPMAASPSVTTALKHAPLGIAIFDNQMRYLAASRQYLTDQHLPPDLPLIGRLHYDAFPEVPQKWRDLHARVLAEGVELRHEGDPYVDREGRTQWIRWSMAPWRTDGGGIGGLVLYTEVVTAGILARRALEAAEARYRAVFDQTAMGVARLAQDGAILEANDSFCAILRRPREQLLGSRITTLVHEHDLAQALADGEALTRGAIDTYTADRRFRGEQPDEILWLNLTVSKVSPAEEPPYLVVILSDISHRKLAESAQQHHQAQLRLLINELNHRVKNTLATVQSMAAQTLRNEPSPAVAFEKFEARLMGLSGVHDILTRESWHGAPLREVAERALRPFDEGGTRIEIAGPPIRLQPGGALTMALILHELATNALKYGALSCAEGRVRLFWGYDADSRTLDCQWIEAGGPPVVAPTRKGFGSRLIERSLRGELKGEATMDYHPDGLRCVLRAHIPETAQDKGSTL

CC0836 = target: T6, CC0836 (Caulobacter vibrioides, UniProt Q9A9X5); details: 500 µM ATP with [γ-32P]ATP; 5 mM MgCl2, pH 8.0, room temperature, 30 min; labelled compound
T6 construct: gene CC_0836; recombinant from E. coli BL21, Ni-NTA purified
T6 sequence (Q9A9X5 1-754): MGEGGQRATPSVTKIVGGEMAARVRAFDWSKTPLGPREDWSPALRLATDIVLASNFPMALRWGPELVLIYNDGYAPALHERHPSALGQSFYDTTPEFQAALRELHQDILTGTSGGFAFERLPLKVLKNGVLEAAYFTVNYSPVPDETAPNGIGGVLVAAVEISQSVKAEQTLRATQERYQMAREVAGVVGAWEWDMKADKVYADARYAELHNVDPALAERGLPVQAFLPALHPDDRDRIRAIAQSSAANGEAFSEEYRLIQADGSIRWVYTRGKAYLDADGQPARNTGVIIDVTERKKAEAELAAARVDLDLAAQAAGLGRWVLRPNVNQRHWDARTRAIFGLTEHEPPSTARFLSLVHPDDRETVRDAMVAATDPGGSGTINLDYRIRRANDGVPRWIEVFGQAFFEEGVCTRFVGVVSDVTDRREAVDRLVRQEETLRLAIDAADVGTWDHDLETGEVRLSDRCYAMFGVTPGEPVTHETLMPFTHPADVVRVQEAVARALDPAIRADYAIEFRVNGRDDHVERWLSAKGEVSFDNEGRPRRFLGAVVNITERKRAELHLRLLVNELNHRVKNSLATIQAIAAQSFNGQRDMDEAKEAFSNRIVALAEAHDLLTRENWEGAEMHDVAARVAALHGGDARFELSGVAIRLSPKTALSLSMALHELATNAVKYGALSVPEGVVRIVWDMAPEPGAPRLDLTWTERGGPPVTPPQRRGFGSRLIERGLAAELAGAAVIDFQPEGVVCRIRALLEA

CC3058 = target: T7, CC3058 (Caulobacter vibrioides, UniProt Q9A3Z2); details: 500 µM ATP with [γ-32P]ATP; 5 mM MgCl2, pH 8.0, room temperature, 30 min; labelled compound
T7 construct: gene CC_3058; recombinant from E. coli BL21, Ni-NTA purified
T7 sequence (Q9A3Z2 1-465): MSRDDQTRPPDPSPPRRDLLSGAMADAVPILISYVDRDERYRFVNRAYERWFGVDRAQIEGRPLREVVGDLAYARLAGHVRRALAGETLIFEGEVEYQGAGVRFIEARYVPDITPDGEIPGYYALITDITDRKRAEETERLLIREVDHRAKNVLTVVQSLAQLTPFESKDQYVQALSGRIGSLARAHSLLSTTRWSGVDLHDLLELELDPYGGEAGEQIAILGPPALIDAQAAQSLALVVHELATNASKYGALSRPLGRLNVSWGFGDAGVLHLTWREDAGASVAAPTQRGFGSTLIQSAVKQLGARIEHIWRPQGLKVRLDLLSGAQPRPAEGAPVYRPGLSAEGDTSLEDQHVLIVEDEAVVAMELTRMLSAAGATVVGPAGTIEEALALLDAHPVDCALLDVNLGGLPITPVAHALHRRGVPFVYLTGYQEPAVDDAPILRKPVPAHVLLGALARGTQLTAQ

Nc1ncnc2c1ncn2[C@@H]1O[C@H](COP(=O)(O)OP(=O)(O)OP(=O)(O)O)[C@@H](O)[C@H]1O [ATP]
autophosphorylation, SDS-PAGE autoradiography [1]: this part of the kinase is not required for autophosphorylation and phosphotransfer to MrrA
autophosphorylation, SDS-PAGE autoradiography (CC2554): Autophosphorylation of histidine kinases CC2554 (left) and CC2874 (right) and phosphotransfer to MrrA.
autophosphorylation, SDS-PAGE autoradiography (CC2874): Autophosphorylation of histidine kinases CC2554 (left) and CC2874 (right) and phosphotransfer to MrrA.
autophosphorylation, SDS-PAGE autoradiography (CC1683): Purified kinases CC0836, CC1683, CC3058, and CC3170 were mixed with ATP
autophosphorylation, SDS-PAGE autoradiography (CC3170): Purified kinases CC0836, CC1683, CC3058, and CC3170 were mixed with ATP
autophosphorylation, SDS-PAGE autoradiography (CC0836): Purified kinases CC0836, CC1683, CC3058, and CC3170 were mixed with ATP
autophosphorylation, SDS-PAGE autoradiography (CC3058): Purified kinases CC0836, CC1683, CC3058, and CC3170 were mixed with ATP
